Values joined by “and” are separate entries in the source; they are usually repeats but may differ in a detail not shown here. Equal values may be shown once. Inconclusive results and toxic doses are left out.
Tested on: L1210 leukemia ip in BDF1 mice, survival T/C
Assay: NCI In Vivo Anticancer Drug Screen. Data for tumor model L1210 Leukemia (intraperitoneal) in B6D2F1 (BDF1) mice
Conditions: endpoint: mean survival time, higher = longer survival
Procedure, shortened: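 Value reflects the ratio of survival in compound-treated mice to survival in vehicle-treated controls, with both groups carrying the same transplanted tumor.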

[1] = dose: 100.0 mg/kg/injection, schedule: Q01DX001 (ip), vehicle: Klucel (hydroxypropylcellulose) (HPC)
[2] = dose: 200.0 mg/kg/injection, schedule: Q01DX001 (ip), vehicle: Klucel (hydroxypropylcellulose) (HPC)
[3] = dose: 100.0 mg/kg/injection, schedule: Q01DX001 (ip), vehicle: saline
[4] = dose: 100.0 mg/kg/injection, schedule: Q04DX003 (ip), vehicle: saline
[5] = dose: 200.0 mg/kg/injection, schedule: Q01DX001 (ip), vehicle: saline
[6] = dose: 200.0 mg/kg/injection, schedule: Q04DX003 (ip), vehicle: saline
[7] = dose: 400.0 mg/kg/injection, schedule: Q01DX001 (ip), vehicle: saline
[8] = dose: 400.0 mg/kg/injection, schedule: Q04DX003 (ip), vehicle: saline
[9] = dose: 400.0 mg/kg/injection, schedule: Q04DX002 (ip), vehicle: saline with Tween-80
[10] = dose: 50.0 mg/kg/injection, schedule: Q01DX009 (ip), vehicle: saline with Tween-80
[11] = dose: 100.0 mg/kg/injection, schedule: Q01DX009 (ip), vehicle: saline with Tween-80
[12] = dose: 100.0 mg/kg/injection, schedule: Q04DX003 (ip), vehicle: saline with Tween-80
[13] = dose: 100.0 mg/kg/injection, schedule: Q01DX009 (ip), vehicle: Klucel (hydroxypropylcellulose) (HPC)
[14] = dose: 100.0 mg/kg/injection, schedule: Q04DX003 (ip), vehicle: Klucel (hydroxypropylcellulose) (HPC)
[15] = dose: 200.0 mg/kg/injection, schedule: Q01DX009 (ip), vehicle: Klucel (hydroxypropylcellulose) (HPC)
[16] = dose: 200.0 mg/kg/injection, schedule: Q04DX003 (ip), vehicle: Klucel (hydroxypropylcellulose) (HPC)
[17] = dose: 400.0 mg/kg/injection, schedule: Q01DX009 (ip), vehicle: Klucel (hydroxypropylcellulose) (HPC)
[18] = dose: 400.0 mg/kg/injection, schedule: Q04DX003 (ip), vehicle: Klucel (hydroxypropylcellulose) (HPC)

O=C(Nc1cccc(C2=NCCCN2)c1)Nc1cc(C(=O)Nc2ccc(C3=NCCCN3)cc2)ccc1C(=O)Nc1ccc(C2=NCCCN2)cc1
T/C (dose: 0.47 mg/kg/injection, schedule: Q01DX Z (ip), vehicle: saline): 103 % of control
T/C (dose: 0.94 mg/kg/injection, schedule: Q01DX Z (ip), vehicle: saline): 95 % of control
T/C (dose: 1.88 mg/kg/injection, schedule: Q01DX Z (ip), vehicle: saline): 104 % of control
T/C (dose: 3.75 mg/kg/injection, schedule: Q01DX Z (ip), vehicle: saline): 117 % of control and 265 % of control
T/C (dose: 7.5 mg/kg/injection, schedule: Q01DX Z (oral), vehicle: saline): 98 % of control
T/C (dose: 15.0 mg/kg/injection, schedule: Q01DX Z (ip), vehicle: saline): 96 % of control
T/C (dose: 15.0 mg/kg/injection, schedule: Q01DX Z (oral), vehicle: saline): 104 % of control
T/C (dose: 30.0 mg/kg/injection, schedule: Q01DX Z (oral), vehicle: saline): 104 % of control
T/C (dose: 60.0 mg/kg/injection, schedule: Q01DX Z (oral), vehicle: saline): 104 % of control

c1ccc2cc(C3OCC4(CC4)CO3)ccc2c1
T/C (dose: 50.0 mg/kg/injection, schedule: Q01DX001 (ip), vehicle: Klucel (hydroxypropylcellulose) (HPC)): 109 % of control
T/C [1]: 102 % of control
T/C [2]: 100 % of control

O=C(Nc1ccc(F)c([N+](=O)[O-])c1)c1ccc2c(c1)C(=O)OC2=O
T/C [3]: 99 % of control
T/C (dose: 100.0 mg/kg/injection, schedule: Q01DX009 (ip), vehicle: saline): 102 % of control and 92 % of control
T/C (dose: 100.0 mg/kg/injection, schedule: Q04DX002 (ip), vehicle: saline): 104 % of control and 109 % of control
T/C [4]: 106 % of control
T/C [5]: 99 % of control
T/C (dose: 200.0 mg/kg/injection, schedule: Q01DX009 (ip), vehicle: saline): 100 % of control and 92 % of control
T/C (dose: 200.0 mg/kg/injection, schedule: Q04DX002 (ip), vehicle: saline): 96 % of control and 104 % of control
T/C [6]: 111 % of control
T/C [7]: 104 % of control
T/C (dose: 400.0 mg/kg/injection, schedule: Q01DX009 (ip), vehicle: saline): 105 % of control and 92 % of control
T/C (dose: 400.0 mg/kg/injection, schedule: Q04DX002 (ip), vehicle: saline): 96 % of control and 104 % of control
T/C [8]: 103 % of control

CC1=C/C(=N/NC(N)=O)CC(C)C1 (stereo not drawn)
T/C [4]: 100 % of control
T/C [6]: 98 % of control
T/C [8]: 97 % of control

O=S(=O)(N/N=C/c1cc(Cl)ccc1O)c1cc(Cl)c(Cl)cc1Cl
T/C (dose: 5.0 mg/kg/injection, schedule: Q01DX Z (ip), vehicle: other): 107 % of control
T/C (dose: 10.0 mg/kg/injection, schedule: Q01DX Z (ip), vehicle: other): 110 % of control
T/C (dose: 20.0 mg/kg/injection, schedule: Q01DX Z (ip), vehicle: other): 105 % of control

O=C(NC1CCCC2CCCCC21)OCCC1CCCCC1 (stereo not drawn)
T/C [3]: 95 % of control
T/C [5]: 103 % of control
T/C [7]: 95 % of control

CNc1cnc(Cl)nc1Cl
T/C (dose: 50.0 mg/kg/injection, schedule: Q01DX001 (ip), vehicle: acetone): 98 % of control
T/C (dose: 100.0 mg/kg/injection, schedule: Q01DX001 (ip), vehicle: acetone): 93 % of control
T/C (dose: 200.0 mg/kg/injection, schedule: Q01DX001 (ip), vehicle: acetone): 97 % of control

CCOC(=O)S(=O)(=O)c1ccc(C)cc1
T/C (dose: 100.0 mg/kg/injection, schedule: Q04DX003 (ip), vehicle: acetone): 106 % of control
T/C (dose: 200.0 mg/kg/injection, schedule: Q04DX003 (ip), vehicle: acetone): 96 % of control
T/C (dose: 400.0 mg/kg/injection, schedule: Q04DX003 (ip), vehicle: acetone): 101 % of control

[Si]c1cccc2ccccc12
T/C (dose: 25.6 mg/kg/injection, schedule: Q04DX002 (ip), vehicle: saline with Tween-80): 97 % of control
T/C (dose: 64.0 mg/kg/injection, schedule: Q04DX002 (ip), vehicle: saline with Tween-80): 97 % of control
T/C (dose: 160.0 mg/kg/injection, schedule: Q04DX002 (ip), vehicle: saline with Tween-80): 97 % of control
T/C [9]: 101 % of control

Cc1cc(C)c(C(=O)C(=S)N2CCOCC2)c(C)c1
T/C (dose: 200.0 mg/kg/injection, schedule: Q01DX009 (ip), vehicle: acetone): 90 % of control
T/C (dose: 400.0 mg/kg/injection, schedule: Q01DX009 (ip), vehicle: acetone): 96 % of control

CCOP(=O)(OCC)Oc1c(Cl)c(Cl)c(Cl)c(Cl)c1Cl
T/C (dose: 100.0 mg/kg/injection, schedule: Q04DX002 (ip), vehicle: Klucel (hydroxypropylcellulose) (HPC)): 104 % of control
T/C (dose: 200.0 mg/kg/injection, schedule: Q04DX002 (ip), vehicle: Klucel (hydroxypropylcellulose) (HPC)): 100 % of control
T/C (dose: 400.0 mg/kg/injection, schedule: Q04DX002 (ip), vehicle: Klucel (hydroxypropylcellulose) (HPC)): 107 % of control

CSC(N)=NC#N
T/C (dose: 100.0 mg/kg/injection, schedule: Q04DX002 (ip), vehicle: other): 111 % of control
T/C (dose: 200.0 mg/kg/injection, schedule: Q04DX002 (ip), vehicle: other): 93 % of control
T/C (dose: 400.0 mg/kg/injection, schedule: Q04DX002 (ip), vehicle: other): 107 % of control

CCCCC(NC(=O)C(F)(F)F)C(=O)O (stereo not drawn)
T/C (dose: 100.0 mg/kg/injection, schedule: Q01DX009 (ip), vehicle: carboxymethylcellulose (CMC)): 105 % of control
T/C (dose: 200.0 mg/kg/injection, schedule: Q01DX009 (ip), vehicle: carboxymethylcellulose (CMC)): 96 % of control

O=C(CC(O)(C(F)(F)Cl)C(F)(F)Cl)c1cccc([N+](=O)[O-])c1
T/C [10]: 98 % of control
T/C (dose: 50.0 mg/kg/injection, schedule: Q04DX003 (ip), vehicle: saline with Tween-80): 98 % of control
T/C [11]: 98 % of control
T/C [12]: 98 % of control
T/C (dose: 200.0 mg/kg/injection, schedule: Q01DX009 (ip), vehicle: saline with Tween-80): 95 % of control
T/C (dose: 200.0 mg/kg/injection, schedule: Q04DX003 (ip), vehicle: saline with Tween-80): 98 % of control
T/C (dose: 400.0 mg/kg/injection, schedule: Q04DX003 (ip), vehicle: saline with Tween-80): 89 % of control

CSc1ccc(OC2CCCCC2OS(C)(=O)=O)cc1 (stereo not drawn)
T/C [1]: 102 % of control
T/C [13]: 98 % of control
T/C [14]: 107 % of control
T/C [2]: 102 % of control
T/C [15]: 98 % of control
T/C [16]: 91 % of control
T/C (dose: 400.0 mg/kg/injection, schedule: Q01DX001 (ip), vehicle: Klucel (hydroxypropylcellulose) (HPC)): 94 % of control
T/C [17]: 96 % of control
T/C [18]: 96 % of control

O=C/C=C\C=C/Nc1ccc([N+](=O)[O-])cc1[N+](=O)[O-]
T/C (dose: 100.0 mg/kg/injection, schedule: Q04DX002 (ip), vehicle: DMSO): 94 % of control
T/C (dose: 200.0 mg/kg/injection, schedule: Q04DX002 (ip), vehicle: DMSO): 98 % of control
T/C (dose: 400.0 mg/kg/injection, schedule: Q04DX002 (ip), vehicle: DMSO): 102 % of control

O=[N+]([O-])c1cc([N+](=O)[O-])c2sc3ccccc3c2c1
T/C (dose: 50.0 mg/kg/injection, schedule: Q04DX002 (ip), vehicle: saline with Tween-80): 97 % of control
T/C (dose: 100.0 mg/kg/injection, schedule: Q04DX002 (ip), vehicle: saline with Tween-80): 104 % of control and 90 % of control
T/C (dose: 200.0 mg/kg/injection, schedule: Q04DX002 (ip), vehicle: saline with Tween-80): 87 % of control
T/C [9]: 108 % of control

Cc1cc(C)c2c(c1C)OC(C)(C)C=C2
T/C [13]: 98 % of control
T/C [14]: 98 % of control
T/C [15]: 100 % of control
T/C [16]: 107 % of control
T/C [17]: 97 % of control
T/C [18]: 100 % of control

CN1CCCC1CCNc1nc(C(Cl)(Cl)Cl)nc2ccc(Cl)cc12 (stereo not drawn)
T/C (dose: 25.0 mg/kg/injection, schedule: Q01DX009 (ip), vehicle: saline with Tween-80): 106 % of control
T/C [10]: 96 % of control
T/C [11]: 106 % of control
T/C [12]: 88 % of control

CN(/N=C/c1ccccc1)C(=S)Nc1ccccc1
T/C (dose: 62.5 mg/kg/injection, schedule: Q04DX003 (ip), vehicle: Klucel (hydroxypropylcellulose) (HPC)): 100 % of control
T/C (dose: 250.0 mg/kg/injection, schedule: Q04DX003 (ip), vehicle: Klucel (hydroxypropylcellulose) (HPC)): 103 % of control

— PubChem BioAssay AID248 (DTP/NCI, 2004)
